Experimental data as given in patent US20040062739A1, “Use of carbohydrates to improve skin barrier function” (SOCIETE L'OREAL S.A., priority 2000, published 2004).

Key:
Assay type in all cases: biochemical
[1] = test system: β-D-glucosidase in the stratum corneum; assay: enzymatic test of stratum corneum glycosidases with PNP chromogenic substrate: β-glucosidase
Procedure: (§1) In order to determine the nature and importance of the barrier effect of a carbohydrate derivative in accordance with the invention, the influence of O-octanoyl-6′-maltose on glycosidase activity was studied using the following enzymatic test: The assay was carried out in a 96 well plate. A mixture comprising the following was produced: 75μl of a 10 mM solution of specific chromogenic substrate coupled to paranitrophenol (PNP); 10 μl of 700 mM citrate buffer/200 mM sodium phosphate, pH 4.5; 55 μl of a 0.5 M solution of O-octanoyl-6′-maltose [α-D-glucopyannosyl-1-4-D-glucopyranose]; 40 μl of a solution of soluble glycosidases from the stratum corneum. This solution was obtained simply by scratching the forearm into a 70 mM sodium citrate buffer, pH 4.5 containing 1% of Tween 20 and eliminating cell debris by sequential filtering through a membrane with a pore size of 0.45 and of 0.22 μm. The measurements were carried out by quantifying the yellow coloration after incubation at 37° C. for a period in the range 1h30 and 48 hours.

[2] = test system: thermostable recombinant glycosidases (Clonezyme); assay: effect on thermostable recombinant glycosidases sold by Clonezyme; settings: FIG. 3; increasing concentrations; 7 glycosidases tested
Procedure: O-octanoyl-6′-maltose was also tested for its effect on glycosidases sold by Clonezyme.

[3] = test system: other glycosidases of the stratum corneum; assay: enzymatic test of stratum corneum glycosidases with PNP chromogenic substrate: other glycosidases; settings: FIG. 1; activity relative to value without compound; pH 4.5, 37° C.
Procedure: as §1

| SMILES | stimulation of β-D-glucosidase activity ([1]; different concentrations, FIG. 2) | effect on recombinant glycosidases, first group of enzymes [2] | effect on recombinant glycosidases, second group of enzymes [2] | stimulation of recombinant glycosidases, third group of enzymes, of their base activity [2] | effect on β-glucosidase activity of the stratum corneum ([1]; FIG. 1, activity relative to value without compound, pH 4.5, 37° C.) | concentration giving maximum stimulation of β-D-glucosidase activity ([1]; increasing product concentrations, about 40 mM (1%)) | effect on the other glycosidases of the stratum corneum [3] |
| --- | --- | --- | --- | --- | --- | --- | --- |
| CCCCCCCC(=O)OCC1OC(O)C(O)C(O)C1O [O-octanoyl-6-D-glucose] | a certain stimulation of activity, albeit small | – | – | – | – | – | – |
| CCCCCCCC(=O)OC[C@H]1O[C@H](O[C@H]2[C@H](O)[C@@H](O)C(O)O[C@@H]2CO)[C@H](O)[C@@H](O)[C@@H]1O (stereo partly drawn) [O-octanoyl-6′-maltose, O-octanoyl-6′-maltose [α-D-glucopyranosyl-1-4-D-glucopyranose]] | – | insensitive | inhibited | up to 400% | only β-glucosidase had kinetics influenced | about 40 mM | either indifferent to the presence of O-octanoyl-6′-maltose or very slightly inhibited |
